Source: ChEMBL document CHEMBL2074440, “Molecular cloning, chromosomal localization, and functional characterization of a human liver Na+/bile acid cotransporter” (J Clin Invest, 1994)

How the values were obtained:
Parameters in all cases: scale not given: the % may be the effect or the level left
[1] = target: T1, Hepatic sodium/bile acid cotransporter (Homo sapiens, UniProt Q14973); assay: TP_TRANSPORTER: inhibition of Taurocholate uptake (Taurochorate: 10 uM, Bumetanide: 500 uM) in Xenopus laevis oocytes; type: functional, cell-based; conditions: oocyte
T1 sequence (Q14973 whole entry): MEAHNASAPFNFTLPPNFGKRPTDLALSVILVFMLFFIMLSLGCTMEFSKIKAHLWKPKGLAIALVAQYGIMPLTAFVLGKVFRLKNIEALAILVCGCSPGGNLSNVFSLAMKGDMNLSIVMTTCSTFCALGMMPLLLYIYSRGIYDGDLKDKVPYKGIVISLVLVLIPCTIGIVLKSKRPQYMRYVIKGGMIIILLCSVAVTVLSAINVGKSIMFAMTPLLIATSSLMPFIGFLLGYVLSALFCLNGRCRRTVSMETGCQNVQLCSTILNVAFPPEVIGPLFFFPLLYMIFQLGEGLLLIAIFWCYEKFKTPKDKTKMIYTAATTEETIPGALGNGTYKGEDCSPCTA

[2] = target: T1, Hepatic sodium/bile acid cotransporter; assay: TP_TRANSPORTER: inhibition of Taurocholate uptake (Taurochorate: 10 uM, CDCA: 100 uM) in Xenopus laevis oocytes; type: functional, cell-based; conditions: oocyte
[3] = target: T1, Hepatic sodium/bile acid cotransporter; assay: TP_TRANSPORTER: inhibition of Taurocholate uptake (Taurochorate: 10 uM, GCDCA: 100 uM) in Xenopus laevis oocytes; type: functional, cell-based, Oocyte; conditions: probe taurocholate (10 uM), read-out: Activity
[4] = target: T1, Hepatic sodium/bile acid cotransporter; assay: TP_TRANSPORTER: inhibition of Taurocholate uptake (Taurochorate: 10 uM, GC: 100 uM) in Xenopus laevis oocytes; type: functional, cell-based; conditions: oocyte
[5] = target: T1, Hepatic sodium/bile acid cotransporter; assay: TP_TRANSPORTER: inhibition of Taurocholate uptake (Taurochorate: 10 uM, Lithocholate: 100 uM) in Xenopus laevis oocytes; type: functional, cell-based, Oocyte; conditions: probe taurocholate (10 uM), read-out: Activity
[6] = target: T1, Hepatic sodium/bile acid cotransporter; assay: TP_TRANSPORTER: inhibition of Taurocholate uptake (Taurochorate: 10 uM, Glycholithocholate: 100 uM) in Xenopus laevis oocytes; type: functional, cell-based, Oocyte; conditions: probe taurocholate (10 uM), read-out: Activity
[7] = target: T1, Hepatic sodium/bile acid cotransporter; assay: TP_TRANSPORTER: inhibition of Taurocholate uptake (Taurochorate: 10 uM, BSP: 100 uM) in Xenopus laevis oocytes; type: functional, cell-based, Oocyte; conditions: probe taurocholate (10 uM), read-out: Activity
[8] = target: T1, Hepatic sodium/bile acid cotransporter; assay: TP_TRANSPORTER: inhibition of Taurocholate uptake (Taurochorate: 10 uM, TCDC: 100 uM) in Xenopus laevis oocytes; type: functional, cell-based; conditions: oocyte
[9] = target: T1, Hepatic sodium/bile acid cotransporter; assay: TP_TRANSPORTER: inhibition of Taurocholate uptake (Taurochorate: 10 uM, TDCA: 100 uM) in Xenopus laevis oocytes; type: functional, cell-based; conditions: oocyte
[10] = target: T1, Hepatic sodium/bile acid cotransporter; assay: TP_TRANSPORTER: inhibition of Taurocholate uptake (Taurochorate: 10 uM, Taurolithocholate: 100 uM) in Xenopus laevis oocytes; type: functional, cell-based, Oocyte; conditions: probe taurocholate (10 uM), read-out: Activity
[11] = target: T1, Hepatic sodium/bile acid cotransporter; assay: TP_TRANSPORTER: inhibition of Taurocholate uptake (Taurochorate: 10 uM, TUDC: 100 uM) in Xenopus laevis oocytes; type: functional, cell-based; conditions: oocyte
[12] = target: T1, Hepatic sodium/bile acid cotransporter; assay: TP_TRANSPORTER: inhibition of Taurocholate uptake (Taurochorate: 10 uM, UDCA: 100 uM) in Xenopus laevis oocytes; type: functional, cell-based, Oocyte; conditions: probe taurocholate (10 uM), read-out: Activity

CCCCNc1cc(C(=O)O)cc(S(N)(=O)=O)c1Oc1ccccc1 [BUMETANIDE]
Activity [1]: 71%

C[C@H](CCC(=O)O)[C@H]1CC[C@H]2[C@@H]3[C@H](O)C[C@@H]4C[C@H](O)CC[C@]4(C)[C@H]3CC[C@]12C [CHENODIOL]
Activity [2]: 13%

C[C@H](CCC(=O)NCC(=O)O)[C@H]1CC[C@H]2[C@@H]3[C@H](O)C[C@@H]4C[C@H](O)CC[C@]4(C)[C@H]3CC[C@]12C [GLYCOCHENODEOXYCHOLATE]
activity at 100 µM [3]: 14%

C[C@H](CCC(=O)NCC(=O)O)[C@H]1CC[C@H]2[C@@H]3[C@H](O)C[C@@H]4C[C@H](O)CC[C@]4(C)[C@H]3C[C@H](O)[C@]12C [GLYCOCHOLIC ACID]
Activity [4]: 44%

C[C@H](CCC(=O)O)[C@H]1CC[C@H]2[C@@H]3CC[C@@H]4C[C@H](O)CC[C@]4(C)[C@H]3CC[C@]12C [LITHOCHOLIC ACID]
activity at 100 µM [5]: 63%

C[C@H](CCC(=O)NCC(=O)O)[C@H]1CC[C@H]2[C@@H]3CC[C@@H]4C[C@H](O)CC[C@]4(C)[C@H]3CC[C@]12C [LITHOGLYCOCHOLATE]
activity at 100 µM [6]: 24%

O=C1OC(c2ccc(O)c(S(=O)(=O)O)c2)(c2ccc(O)c(S(=O)(=O)O)c2)c2c(Br)c(Br)c(Br)c(Br)c21 [SULFOBROMOPHTHALEIN SODIUM]
activity at 100 µM [7]: 41%

C[C@H](CCC(=O)NCCS(=O)(=O)O)[C@H]1CC[C@H]2[C@@H]3[C@H](O)C[C@@H]4C[C@H](O)CC[C@]4(C)[C@H]3CC[C@]12C [TAUROCHENODEOXYCHOLATE]
Activity [8]: 19%

C[C@H](CCC(=O)NCCS(=O)(=O)O)[C@H]1CC[C@H]2[C@@H]3CC[C@@H]4C[C@H](O)CC[C@]4(C)[C@H]3C[C@H](O)[C@]12C [TAURODEOXYCHOLIC ACID]
Activity [9]: 10%

C[C@H](CCC(=O)NCCS(=O)(=O)O)[C@H]1CC[C@H]2[C@@H]3CC[C@@H]4C[C@H](O)CC[C@]4(C)[C@H]3CC[C@]12C [TAUROLITHOCHOLIC ACID]
activity at 100 µM [10]: 33%

C[C@H](CCC(=O)NCCS(=O)(=O)O)[C@H]1CC[C@H]2[C@@H]3[C@@H](O)C[C@@H]4C[C@H](O)CC[C@]4(C)[C@H]3CC[C@]12C [TAURURSODIOL]
Activity [11]: 8%

C[C@H](CCC(=O)O)[C@H]1CC[C@H]2[C@@H]3[C@@H](O)C[C@@H]4C[C@H](O)CC[C@]4(C)[C@H]3CC[C@]12C [URSODIOL]
activity at 100 µM [12]: 45%
